In data set [1] the test system is adult subjects following inguinal hernia repair surgery. Kind of data set: Phase I/II study, single infiltrative local administration after inguinal hernia repair surgery: efficacy (NPRS pain, rescue analgesic use). It counts as in vivo, human. As to conditions: TLC590 475 mg, ropivacaine group 150 mg. The source says:
A Phase I/II, randomized, double-blind, comparator-controlled, dose-escalation study to assess the safety, PK, and efficacy of single postsurgical application of the anesthetic composition in accordance with the present disclosure (denoted as TLC590) compared with Naropin® via a single infiltrative local administration in adult subjects following inguinal hernia repair surgery. The study enrolled approximately 64 evaluable subjects who met all entry criteria across 4 cohorts. Dose escalation of a single postsurgical administration of TLC590 was performed using sequential dose levels, as compared with Naropin®. Dose-escalation were determined by review of […] (TEAEs) and all serious AEs (SAEs) by a safety monitoring committee (SMC). […] Pain intensity at rest and with movement assessed using an 11-point NPRS ranging from a score of 0 (no pain) to 10 (worst possible pain). • 2. […]

A short description of data set [2]: pKa of ropivacaine and calculated uncharged fraction. It counts as physicochemical. The following applies: pH 6.0; calculated from pKa. As for the experimental part: In some embodiments, the lipid-based complex of the anesthetic composition is formed by hydrating a lyophilized lipid cake with a pharmaceutically acceptable buffer solution at a pH higher than 5.5. […] In some embodiments, the lipid cake according to the present disclosure is prepared by dissolving apolar ropivacaine, phospholipid, and cholesterol in a solvent system, e.g., tert-butanol alone or a tert-butanol/water cosolvent, followed by removing the solvent system using a lyophilization technique.

The values below come from patent US12409154B2, “Pharmaceutical compositions for use in treating pain” (TAIWAN LIPOSOME COMPANY, LTD., priority 2019, dated 2025).

Consider `CCCN1CCCC[C@H]1C(=O)Nc1c(C)cccc1C` [ropivacaine], for which the “median time to first rescue analgesic” value in data set [1] is 13 h. Besides, the “median time to first postsurgical opioid use” value in data set [1] (among those who used rescue opioid) turned out to be 3.3 h. The “theoretically uncharged ropivacaine, share of available ropivacaine” value in data set [2] is reported as 0.8%.
